Test results taken from patent publication US4214091A, “Antibiotic No. 2-200 and process for producing thereof” (Chugai Seiyaku Kabushiki Kaisha, priority 1977, dated 1980).
Converted amounts (≈) assume the structure as drawn. Read-outs that look alike come from different tables or passages of the source.

Tests used:
mammals = settings: in vivo
gram negative bacteria = experiment: antibacterial activity (general statement); type: cell-based
[1] = system: bacteria of genus Salmonella; experiment: antibacterial activity (general statement); type: cell-based
5-week-old ddY male mice = settings: mouse, in vivo
Procedure: The crystal of the antibiotic No. 2-200 obtained in Example 4 was floated in sterile distilled water, mixed with 5% caustic soda to adjust the pH to 7.0, and dissolved to make a solution. The solution was adminstered to 5-week-old ddY male mice to examine its actuate toxicity as well as delayed toxicity. During 10 days that followed the administration, the weight of each mouse, its food intake and water intake were measured.

[2] = system: mutant of Pseudomonus aeroginosa, for example, G-75, M-57740; experiment: growth inhibition of β-lactam-sensitive mutant; type: cell-based; settings: mutant sensitive to a β-lactam antibiotic
Description: The present inventors further continued their studies and succeeded in isolating from a culture of actinomycete an effective substance as a crystal, which was subjected to X-ray diffractometry to determine its structure. […] This invention is a development of studies based on these findings.

[3] = system: Klebsiella pneumoniae 3K25; experiment: MIC by agar plate dilution method; type: cell-based; settings: 3K25, 24 h, 37° C., read-out: Minimum inhibitory concentration
Procedure: (§1) The test organisms were incubated by agar plate dilution method at 37° C. for 24 hours, after which their growth was observed. The test organisms were incubated on an NB medium (product of Eiken Kagaku) at 37° C. overnight, and each culture obtained was diluted 10^3 - to 10^4 -fold and stamped on an agar plate. The following agar plate media were used:
(§2) NA: nutrient agar (product of Eiken Kagaku)
(§3) NA+G6P: glucose-6-phosphoric acid (50 μg/ml) plus nutrient agar
(§4) Anti-3A: antibiotic medium No. 3 agar (product of Difco)
(§5) MHA: Mueller Hinton Agar (product of Eiken Kagaku)

[4] = system: Serratia marrcescens T-50; experiment: MIC by agar plate dilution method; type: cell-based; settings: for MIC: Serratia
Procedure: as §1, §2, §3, §4, §5

[5] = system: Staphylococcus aureus 222; experiment: MIC by agar plate dilution method; type: cell-based; settings: Staphylococcus aureus, 222, 24 h, 37° C., read-out: Minimum inhibitory concentration
Procedure: as §1, §2, §3, §4, §5

Sarcina lutea = experiment: MIC by agar plate dilution method; type: cell-based; settings: Micrococcus luteus
Procedure: as §1, §2, §3, §4, §5

Proteus mirabilis 9' = experiment: MIC by agar plate dilution method; type: cell-based; settings: 24 h, 37° C., read-out: Minimum inhibitory concentration
Procedure: as §1, §2, §3, §4, §5

Bacillus thuringensis = experiment: MIC by agar plate dilution method; type: cell-based; settings: 24 h, 37° C., read-out: Minimum inhibitory concentration
Procedure: as §1, §2, §3, §4, §5

[6] = system: Fusobacterium glutinosum 1006; experiment: MIC, GAM agar, anaerobic; type: cell-based; settings: 37° C., 40 hours, inoculum 10^6/ML, read-out: Minimum inhibitory concentration (MIC)
Procedure: (§6) Minimum inhibitory concentration (MIC) for gram
(§7) Note: incubated at 37° C. for 40 hours on GAM agar medium (product
(§8) of Nippon Seiyaku) using anaerobic incubator. Inoculated with 10^6

Bacteroides fragilis V-6 = experiment: MIC, GAM agar, anaerobic; type: cell-based; settings: V6, 40 h, read-out: Minimum inhibitory concentration (MIC)
Procedure: as §6, §7, §8

Bacteroides fragilis V-7 = experiment: MIC, GAM agar, anaerobic; type: cell-based; settings: V7, 40 h, read-out: Minimum inhibitory concentration (MIC)
Procedure: as §6, §7, §8

[7] = system: Fusobacterium necroforum S-45; experiment: MIC, GAM agar, anaerobic; type: cell-based; settings: S45, 37° C., 40 hours, inoculum 10^6/ML, read-out: Minimum inhibitory concentration (MIC)
Procedure: as §6, §7, §8

Bacteroides fragilis V-8 = experiment: MIC, GAM agar, anaerobic; type: cell-based; settings: V8, 40 h, read-out: Minimum inhibitory concentration (MIC)
Procedure: as §6, §7, §8

`C=CC(C)=CC1(C)SC(=O)C(C)=C1O` (single isomer, unassigned) [No. 2-200] was tested, and the “delayed toxicity (general statement)” value (mammals) was “no delayed toxicity”, the “antibacterial activity to gram negative bacteria” value (gram negative bacteria) was “exhibits antibacterial activity” and the “antibacterial activity to bacteria of genus Salmonella” value [1] was “particularly strong antibacterial activity”. For the same compound, the delayed toxicity (5-week-old ddY male mice) was “entirely free from delayed toxicity”, the inhibition of growth [2] was “strongly inhibits the growth” and the MIC ([3]; Anti-3A) was 50 µg/mL (≈ 238 µM). For the same compound, the MIC ([3]; MHA) was 50 µg/mL (≈ 238 µM), the MIC ([3]; NA + G6P (50 μg/ml)) was 100 µg/mL and the MIC ([3]; NA) was 200 µg/mL (≈ 951 µM). The Minimum inhibitory concentration ([4]; NA + G6P (50 μg/ml), 37° C., 24 hours) was 50 µg/mL, the MIC ([4]; T50, 24 h, read-out: Minimum inhibitory concentration, Anti-3A, 37° C.) was 12.5 µg/mL (≈ 59.4 µM) and the MIC ([4]; T50, 24 h, read-out: Minimum inhibitory concentration, MHA, 37° C.) was 1.56 µg/mL (≈ 7.42 µM). The MIC ([4]; T50, NA, 37° C., 24 hours, read-out: Minimum inhibitory concentration) was 50 µg/mL (≈ 238 µM), the MIC ([5]; Anti-3A) was > 400 µg/mL and the MIC ([5]; MHA) was 100 µg/mL (≈ 476 µM). The MIC ([5]; NA + G6P (50 μg/ml)) was ≥ 400 µg/mL, the MIC ([5]; NA) was > 400 µg/mL and the MIC (Sarcina lutea; 24 h, read-out: Minimum inhibitory concentration, Anti-3A, 37° C.) was 12.5 µg/mL (≈ 59.4 µM). The MIC (Sarcina lutea; 24 h, read-out: Minimum inhibitory concentration, NA + G6P (50 μg/ml), 37° C.) was 12.5 µg/mL, the MIC (Sarcina lutea; 24 h, read-out: Minimum inhibitory concentration, NA, 37° C.) was 12.5 µg/mL (≈ 59.4 µM) and the MIC (Sarcina lutea; MHA, 37° C., 24 hours, read-out: Minimum inhibitory concentration) was 25 µg/mL (≈ 119 µM). The MIC (Proteus mirabilis 9'; Anti-3A) was 100 µg/mL (≈ 476 µM), the MIC (Proteus mirabilis 9'; MHA) was 200 µg/mL (≈ 951 µM) and the MIC (Proteus mirabilis 9'; NA + G6P (50 μg/ml)) was 50 µg/mL. The MIC (Proteus mirabilis 9'; NA) was 50 µg/mL (≈ 238 µM), the MIC (Bacillus thuringensis; Anti-3A) was 50 µg/mL (≈ 238 µM) and the MIC (Bacillus thuringensis; MHA) was 50 µg/mL (≈ 238 µM). For the same compound, the MIC (Bacillus thuringensis; NA + G6P (50 μg/ml)) was 25 µg/mL, the MIC (Bacillus thuringensis; NA) was 50 µg/mL (≈ 238 µM) and the MIC [6] was 100 µg/mL (≈ 476 µM). For the same compound, the MIC (Bacteroides fragilis V-6) was 3.12 µg/mL (≈ 14.8 µM), the MIC (Bacteroides fragilis V-7) was 12.5 µg/mL (≈ 59.4 µM) and the MIC [7] was 3.12 µg/mL (≈ 14.8 µM). It also gave an MIC (Bacteroides fragilis V-8) of 6.25 µg/mL (≈ 29.7 µM).
